# According to patent US9913478B2, “Organic and environmentally “green” biocide compositions and applications” (Arrowhead Center, Inc., priority 2013, dated 2018):
# System: X. campestris Provencia strain
# Assay: growth (CFU) after 18 hours of incubation, oil compared to carvacrol (FIG. 2)
# Type: cell-based, Xanthomonas campestris
# Conditions: 0.01 mg/ml, oil vs carvacrol p-value=0.009
# Experimental: The bars in the graph indicate the bacterial number (CFU) that was reached after 18 hours of incubation. […] Thus, a composition of biocide comprising oregano oil exerts synergistic effects, due, in part, to the multiple antimicrobial biochemicals that make up the oil (see FIG. 1).
smiles,measurement,value
"Cc1ccc(C(C)C)cc1O [Carvacrol, carvacrol]","inhibition of growth, bacterial number (CFU)",not as effective as the essential oil
